30 compounds from ChEMBL document CHEMBL4145589, “Aminoisoxazoles as Potent Inhibitors of Tryptophan 2,3-Dioxygenase 2 (TDO2)” (ACS Med Chem Lett, 2018) can be followed below.

Data set [1] deals with A 172. As to the kind of experiment: Cytotoxicity against human A172 cells assessed as reduction in cell viability up to 25 uM by Cell Titer-Glo based luminescence assay.
The target of data set [2] is T1, Tryptophan 2,3-dioxygenase (Homo sapiens, UniProt P48775). As to the kind of experiment: Inhibition of recombinant human TDO2 assessed as decrease in conversion of L-tryptophan to N-formylkynurenine preincubated for 5 mins followed by 0.2 mM substrate addition measured after 15 mins by RapidFire mass spectrometry based fluorescence assay.
In data set [3] the test system is SW48. As to the kind of experiment: Cytotoxicity against human SW48 cells assessed as reduction in cell viability up to 25 uM by Cell Titer-Glo based luminescence assay. (In general: Cellular ATP, detected with luciferase, serves as a proxy for viable cell number.)
Data set [4] has as its target T1, Tryptophan 2,3-dioxygenase. As to the kind of experiment: Inhibition of TDO2 in human SW48 cells assessed as decrease in conversion of tryptophan to N-formylkynurenine after 30 mins by fluorescence assay. Format: cell-based.
Data set [5] is described as follows: Metabolic stability in dog whole blood assessed as parent compound remaining at 0.5 mM after 2 hrs by LC-MS/MS analysis. In kind it is ADME, tissue-based, Canis lupus familiaris. The settings on record: read-out: Stability.
Data set [6] is described as follows: Metabolic stability in rat whole blood assessed as parent compound remaining at 0.5 mM after 2 hrs by LC-MS/MS analysis. Format: ADME, tissue-based. The conditions noted are these: read-out: Stability.
The nature of data set [7]: Metabolic stability in human whole blood assessed as parent compound remaining at 0.5 mM after 2 hrs by LC-MS/MS analysis. Format: ADME, tissue-based. The settings on record: read-out: Stability.
The target in data set [8] is T1, Tryptophan 2,3-dioxygenase. As to the kind of experiment: Competitive inhibition of recombinant human TDO2 assessed as decrease in conversion of L-tryptophan to N-formylkynurenine preincubated for 5 mins followed by 1 mM substrate addition measured after 15 mins by RapidFire mass spectrometry based fluorescence assay.
Data set [9] addresses Cytochrome P450 2D6 (Homo sapiens, UniProt P10635). As to the kind of experiment: Inhibition of CYP2D6 (unknown origin). Format: ADME.
Data set [10] addresses Cytochrome P450 2C19 (Homo sapiens, UniProt P33261). As to the kind of experiment: Inhibition of CYP2C19 (unknown origin). In kind it is ADME.
Data set [11] addresses Cytochrome P450 3A4 (Homo sapiens, UniProt P08684). As to the kind of experiment: Inhibition of CYP3A4 (unknown origin). In kind it is ADME.
For data set [12], the target named is Cytochrome P450 2C9 (Homo sapiens, UniProt P11712). As to the kind of experiment: Inhibition of CYP2C9 (unknown origin). In kind it is ADME.
Data set [13] has as its target T2, Cytochrome P450 1A2 (Homo sapiens, UniProt P05177).
T2 sequence (P05177 whole entry): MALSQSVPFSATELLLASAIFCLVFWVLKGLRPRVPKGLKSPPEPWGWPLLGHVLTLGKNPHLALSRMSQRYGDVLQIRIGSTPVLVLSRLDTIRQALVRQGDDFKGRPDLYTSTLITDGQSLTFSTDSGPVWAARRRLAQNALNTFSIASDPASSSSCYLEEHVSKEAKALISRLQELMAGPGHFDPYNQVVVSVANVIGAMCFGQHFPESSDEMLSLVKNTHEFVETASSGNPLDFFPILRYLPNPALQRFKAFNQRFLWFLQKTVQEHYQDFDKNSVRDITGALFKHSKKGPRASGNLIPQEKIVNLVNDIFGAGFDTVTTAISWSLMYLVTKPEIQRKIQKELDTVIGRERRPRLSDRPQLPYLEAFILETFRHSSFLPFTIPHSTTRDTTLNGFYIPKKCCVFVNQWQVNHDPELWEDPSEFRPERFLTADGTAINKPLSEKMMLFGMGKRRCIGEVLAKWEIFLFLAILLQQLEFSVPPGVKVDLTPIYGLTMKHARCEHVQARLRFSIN
As to the kind of experiment: Inhibition of CYP1A2 (unknown origin). Format: ADME.

A short description of data set [14]: Metabolic stability in dog whole blood assessed as parent compound remaining at 0.5 mM after 30 mins by LC-MS/MS analysis. Format: ADME, tissue-based, Canis lupus familiaris. The conditions noted are these: read-out: Stability.
A short description of data set [15]: Metabolic stability in rat whole blood assessed as parent compound remaining at 0.5 mM after 30 mins by LC-MS/MS analysis. In kind it is ADME, tissue-based. The settings on record: read-out: Stability.

Sequence of Cytochrome P450 2C19 (P33261 whole entry): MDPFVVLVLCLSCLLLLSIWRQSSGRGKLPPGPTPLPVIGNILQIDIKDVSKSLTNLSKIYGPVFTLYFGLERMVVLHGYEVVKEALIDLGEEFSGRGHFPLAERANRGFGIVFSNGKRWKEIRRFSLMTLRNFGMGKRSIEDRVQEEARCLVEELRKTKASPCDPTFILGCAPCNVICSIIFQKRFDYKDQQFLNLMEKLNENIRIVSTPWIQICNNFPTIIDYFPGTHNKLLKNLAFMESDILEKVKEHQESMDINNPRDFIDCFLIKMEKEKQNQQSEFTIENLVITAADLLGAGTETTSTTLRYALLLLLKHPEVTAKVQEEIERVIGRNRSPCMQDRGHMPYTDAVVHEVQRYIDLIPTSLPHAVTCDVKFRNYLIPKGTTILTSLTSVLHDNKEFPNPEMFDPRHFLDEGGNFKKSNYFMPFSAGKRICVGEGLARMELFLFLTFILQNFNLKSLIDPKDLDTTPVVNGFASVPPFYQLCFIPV
Sequence of Cytochrome P450 2D6 (P10635 whole entry): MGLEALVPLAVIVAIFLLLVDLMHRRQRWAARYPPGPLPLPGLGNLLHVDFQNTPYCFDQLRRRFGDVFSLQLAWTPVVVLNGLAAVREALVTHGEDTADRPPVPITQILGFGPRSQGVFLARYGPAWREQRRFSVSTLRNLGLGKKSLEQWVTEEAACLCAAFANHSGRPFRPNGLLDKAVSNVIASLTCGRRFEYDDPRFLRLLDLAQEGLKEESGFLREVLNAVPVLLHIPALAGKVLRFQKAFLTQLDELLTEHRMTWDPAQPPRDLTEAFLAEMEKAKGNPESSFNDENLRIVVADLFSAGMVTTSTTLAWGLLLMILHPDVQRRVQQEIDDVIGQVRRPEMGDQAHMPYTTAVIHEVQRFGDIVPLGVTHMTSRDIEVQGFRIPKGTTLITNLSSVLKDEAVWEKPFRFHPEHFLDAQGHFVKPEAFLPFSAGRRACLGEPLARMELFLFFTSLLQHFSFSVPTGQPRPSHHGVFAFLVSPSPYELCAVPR
T1 sequence (P48775 whole entry): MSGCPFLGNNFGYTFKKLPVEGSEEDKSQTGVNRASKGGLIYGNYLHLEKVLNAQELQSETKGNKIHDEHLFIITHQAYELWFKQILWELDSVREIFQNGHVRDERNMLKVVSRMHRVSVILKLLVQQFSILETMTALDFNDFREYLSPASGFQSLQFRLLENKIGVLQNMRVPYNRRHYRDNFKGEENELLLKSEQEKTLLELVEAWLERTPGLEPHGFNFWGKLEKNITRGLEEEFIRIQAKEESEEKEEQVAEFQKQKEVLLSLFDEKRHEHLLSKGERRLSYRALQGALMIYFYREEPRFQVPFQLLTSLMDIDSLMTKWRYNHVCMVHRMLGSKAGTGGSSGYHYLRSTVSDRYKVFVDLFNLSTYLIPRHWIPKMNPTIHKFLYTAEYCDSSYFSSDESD
Sequence of Cytochrome P450 2C9 (P11712 whole entry): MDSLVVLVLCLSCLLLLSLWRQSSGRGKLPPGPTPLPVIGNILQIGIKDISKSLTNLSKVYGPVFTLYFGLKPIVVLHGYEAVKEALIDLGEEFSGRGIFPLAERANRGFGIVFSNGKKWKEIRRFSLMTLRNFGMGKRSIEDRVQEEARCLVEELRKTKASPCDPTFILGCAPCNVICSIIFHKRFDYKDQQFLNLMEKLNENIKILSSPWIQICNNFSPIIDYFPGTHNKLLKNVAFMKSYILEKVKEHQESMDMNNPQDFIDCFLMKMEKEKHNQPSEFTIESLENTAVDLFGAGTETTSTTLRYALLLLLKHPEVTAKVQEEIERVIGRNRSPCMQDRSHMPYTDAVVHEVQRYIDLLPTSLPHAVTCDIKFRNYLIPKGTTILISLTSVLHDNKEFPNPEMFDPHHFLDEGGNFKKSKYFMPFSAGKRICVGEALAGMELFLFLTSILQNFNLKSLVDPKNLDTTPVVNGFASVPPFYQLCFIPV
Sequence of Cytochrome P450 3A4 (P08684 whole entry): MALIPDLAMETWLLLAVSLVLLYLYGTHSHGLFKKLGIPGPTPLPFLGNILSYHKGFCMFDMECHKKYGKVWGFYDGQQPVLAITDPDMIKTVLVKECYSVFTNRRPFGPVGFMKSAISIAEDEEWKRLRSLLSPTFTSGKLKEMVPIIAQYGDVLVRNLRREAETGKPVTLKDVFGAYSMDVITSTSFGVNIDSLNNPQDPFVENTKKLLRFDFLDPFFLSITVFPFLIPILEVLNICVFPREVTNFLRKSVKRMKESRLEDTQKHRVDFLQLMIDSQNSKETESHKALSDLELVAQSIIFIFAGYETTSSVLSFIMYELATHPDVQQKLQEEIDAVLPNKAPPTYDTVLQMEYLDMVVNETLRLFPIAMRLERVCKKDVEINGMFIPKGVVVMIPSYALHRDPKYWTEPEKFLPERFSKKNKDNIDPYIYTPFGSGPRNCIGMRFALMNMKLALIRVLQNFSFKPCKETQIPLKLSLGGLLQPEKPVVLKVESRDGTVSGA

A word on the IC50: it is the concentration at which inhibition is half-maximal. By EC50 is commonly meant the concentration that produces a half-maximal response. `Nc1[nH]ncc1-c1ccccc1`: the Activity result in data set [1] and in data set [3] was “Non-Toxic” throughout. In addition, the IC50 in [2] is above 25000 nM. Besides, in [4], the EC50 was above 25000 nM.

As to `Cc1noc(N)c1-c1ccccc1`, the remaining at 2 h, 500 µM in data set [5] was 65%; in data set [6], 50%; in data set [7], 84%. The Activity entry in data set [1] and in data set [3] was “Non-Toxic” each time. The concentration giving a half-maximal response (EC50) in [4] came out at 9700 nM.

Consider `Nc1oncc1C1CCCCC1`, for which the Activity entry in data set [1] and in data set [3] was “Non-Toxic” each time. In addition, in data set [2], the IC50 was found to be 7800 nM. For the same compound, in data set [4], the EC50 was 1500 nM.

With `Nc1cnsc1-c1ccccc1`, the Activity entry in [1] and in data set [3] was “Non-Toxic” throughout. In data set [2], the IC50 was above 25000 nM. In addition, in data set [4], the EC50 was above 25000 nM.

In the case of `Nc1oncc1-c1ccc(Cl)cc1`, the Activity entry in data set [1] and in data set [3] was “Non-Toxic” each time. In addition, the figures for the IC50 in data set [2] and in data set [8] were 830 nM and 4210 nM, respectively. For the same compound, in data set [4], the EC50 is 950 nM.

Take `NC(=O)c1oncc1-c1ccccc1`: the Activity result in data set [1] and in [3] was “Non-Toxic” throughout. Further, in data set [2], the IC50 was above 25000 nM. Moreover, in [4], the EC50 is above 25000 nM.

As to `Nc1cnoc1-c1ccccc1`, the Activity result in data set [1] and in data set [3] was “Non-Toxic” in each case. In addition, in data set [2], the IC50 was above 25000 nM. For the same compound, the EC50 in data set [4] is above 25000 nM.

As to `COc1cccc(-c2cnoc2N)c1`, the Activity entry in data set [1] and in data set [3] was “Non-Toxic” throughout. Also, the IC50 in data set [2] turned out to be 3100 nM. Besides, the EC50 in [4] was 1500 nM.

Regarding `CNc1oncc1-c1ccccc1`, the remaining at 2 h, 500 µM in data set [5] was found to be 0.1%; in [6] it was 0.1%; in [7] it was 0.3%. In addition, the Activity result in [1] and in [3] was “Non-Toxic” throughout. The IC50 in data set [2] amounted to 190 nM. For the same compound, the 50% effective concentration (EC50) in data set [4] was 670 nM.

With `Nc1snnc1-c1ccccc1`, the Activity entry in data set [1] and in data set [3] was “Non-Toxic” throughout. Moreover, the IC50 in data set [2] is above 25000 nM. In addition, in [4], the EC50 was above 25000 nM.

In the case of `OCc1oncc1-c1ccccc1`, the Activity entry in data set [1] and in data set [3] was “Non-Toxic” in each case. Moreover, the IC50 in [2] was 4400 nM. For the same compound, the EC50 in [4] came to 18000 nM.

As for `Nc1oncc1-c1ccccn1`, the Activity entry in data set [1] and in [3] was “Non-Toxic” each time. For the same compound, in data set [2], the IC50 turned out to be 1700 nM. Further, the EC50 in data set [4] was determined as 820 nM.

Regarding `Nc1oncc1-c1cccs1`, the Activity result in [1] and in [3] was “Non-Toxic” each time. In [2], the IC50 came to 29 nM. The EC50 in [4] was 810 nM.

In the case of `Nc1oncc1-c1ccccc1`, the remaining at 2 h, 500 µM in [5], in data set [6] and in data set [7] was 0% in each case. Besides, the IC50 was above 10000 nM in data set [9]; above 10000 nM in data set [10]; above 10000 nM in data set [11]; 140 nM in [2]; above 10000 nM in data set [12]; above 10000 nM in data set [13]. For the same compound, the Activity entry in data set [1] and in data set [3] was “Non-Toxic” each time. Also, in [4], the EC50 was 85 nM.

Turning to `Nc1oncc1-n1cc(F)cn1`, the IC50 is above 10000 nM in [9]; above 10000 nM in data set [10]; above 10000 nM in data set [11]; 340 nM in data set [2]; above 10000 nM in [12]; above 10000 nM in [13]. For the same compound, the Activity result in [1] and in data set [3] was “Non-Toxic” throughout. Moreover, in data set [7], the remaining at 2 h, 500 µM was found to be 91%. The EC50 in [4] was determined as 77 nM.

Take `Nc1oncc1C1CCCC1`: the Activity entry in data set [1] and in [3] was “Non-Toxic” throughout. In addition, in [2], the IC50 was 640 nM. Also, the EC50 in data set [4] is 360 nM.

`Nc1cnnn1-c1ccccc1`: the Activity result in data set [1] and in data set [3] was “Non-Toxic” each time. Also, the IC50 in data set [2] was above 25000 nM. In addition, the EC50 in [4] is above 25000 nM.

In the case of `CNC(=O)c1oncc1-c1ccccc1`, the Activity result in [1] and in data set [3] was “Non-Toxic” throughout. Further, in [2], the IC50 was above 25000 nM. Besides, the EC50 in data set [4] is above 25000 nM.

Turning to `Nc1nncn1-c1ccccc1`, the Activity result in data set [1] and in data set [3] was “Non-Toxic” each time. For the same compound, in data set [2], the IC50 was above 25000 nM. Besides, the EC50 in [4] is above 25000 nM.

As for `Nc1oncc1-n1cccn1`, the IC50 in data set [9] was above 10000 nM; in data set [10] it was above 10000 nM; in data set [11], above 10000 nM; in [2] it was 290 nM; in data set [12] it was above 10000 nM; in data set [13], above 10000 nM. Also, the Activity result in [1] and in data set [3] was “Non-Toxic” each time. The EC50 in [4] amounted to 230 nM.

On to `Cn1ncc(-c2ccccc2)c1N`, for which the Activity result in data set [1] and in data set [3] was “Non-Toxic” in each case. The IC50 in data set [2] is above 25000 nM. In [4], the EC50 is above 25000 nM.

In the case of `Nc1oncc1-c1cccc(Cl)c1`, the Activity result in data set [1] and in data set [3] was “Non-Toxic” in each case. Also, the IC50 was 500 nM in [2] and 2940 nM in [8]. For the same compound, the concentration for a half-maximal effect (EC50) in data set [4] is 250 nM.

With `Nc1oncc1-c1ccc(F)cc1`, the Activity entry in data set [1] and in data set [3] was “Non-Toxic” each time. In data set [2], the IC50 is 580 nM. Also, in data set [4], the EC50 came out at 210 nM.

Consider `Nc1sncc1-c1ccccc1`, for which the Activity result in data set [1] and in data set [3] was “Non-Toxic” in each case. Further, the half-maximal inhibitory concentration (IC50) in data set [2] worked out at 18000 nM. In addition, in data set [4], the EC50 is above 25000 nM.

With `c1ccc(-c2cnoc2)cc1`, the Activity entry in [1] and in [3] was “Non-Toxic” throughout. Further, in data set [2], the IC50 was above 25000 nM. Also, the EC50 in [4] was above 25000 nM.

For `Nc1oncc1-c1ccsc1`, the remaining at 0.5 h, 500 µM in data set [14] and in [15] was 3% each time. For the same compound, the IC50 was above 10000 nM in data set [9]; above 10000 nM in data set [10]; above 10000 nM in [11]; 28 nM in [2]; above 10000 nM in data set [12]; above 10000 nM in data set [13]. For the same compound, the Activity result in data set [1] and in data set [3] was “Non-Toxic” each time. Besides, in [4], the EC50 is 99 nM.

For `Nc1nnsc1-c1ccccc1`, the Activity entry in data set [1] and in [3] was “Non-Toxic” each time. Further, in [2], the IC50 is 270 nM. In data set [4], the concentration for a half-maximal effect (EC50) was above 25000 nM.

Turning to `Cc1ccn(-c2cnoc2N)n1`, the Activity entry in [1] and in data set [3] was “Non-Toxic” in each case. Moreover, in data set [2], the IC50 came to 1600 nM. In [4], the EC50 was 810 nM.

Take `Nc1oncc1-c1cccnc1`: the Activity entry in [1] and in data set [3] was “Non-Toxic” each time. Moreover, in [2], the IC50 was determined as 2300 nM. In [4], the EC50 was 1400 nM.

Regarding `Cc1cnn(-c2cnoc2N)c1`, the Activity result in data set [1] and in data set [3] was “Non-Toxic” throughout. In data set [2], the IC50 was determined as 1600 nM. Besides, the EC50 in data set [4] worked out at 340 nM.
